Values of other authors, collected in patent US20240366754A1, “PHARMACEUTICAL COMPOSITIONS FOR DELIVERY OF VIRAL ANTIGENS AND RELATED METHODS” (BioNTech SE, priority 2021, published 2024).
“Also recorded” adds a separate entry of the source. Where two headings read alike, the source gives them in different places.

Assays:
[1] = test system: norovirus; conditions: in vivo

SMILES | Most common adverse effects (Intravenous formulations) | Most common adverse effects (Oral formulations) | effect on norovirus illness [1]
Nc1nc2c(ncn2COCCO)c(=O)[nH]1 [acyclovir] | phlebitis, acute renal; also recorded: failure, nausea,; also recorded: vomiting, rash | malaise, headache,; also recorded: nausea, vomiting | 
CC(=O)OCC(CCn1cnc2cnc(N)nc21)COC(C)=O [famciclovir] |  | headache, nausea,; also recorded: fatigue, diarrhea | 
O=C(O)P(=O)(O)O [foscarnet] | fever, headache,; also recorded: renal dysfunction,; also recorded: electrolyte; also recorded: abnormalities,; also recorded: nausea, vomiting; also recorded: diarrhea, anemia,; also recorded: granulocytopenia |  | 
CC(=O)Oc1ccccc1C(=O)Nc1ncc([N+](=O)[O-])s1 [nitazoxanide] |  |  | reduce the duration of illness
CC(C)[C@H](N)C(=O)OCCOCn1cnc2c(=O)[nH]c(N)nc21 [valacyclovir] |  | headache, nausea,; also recorded: abdominal pain | 
